Assay results taken from patent US8883797B2, “Metalloenzyme inhibitor compounds” (Viamet Pharmaceuticals, Inc., priority 2011, dated 2014).
Converted amounts (≈) assume the structure as drawn.

Key:
C. albicans = test: Minimum Inhibitory Concentration (MIC) (C. albicans), CLSI M27-A2; format: cell-based; conditions: Candida albicans; about 50% growth reduction; approx. 48 h at 35 °C
Experimental: A. Minimum Inhibitory Concentration (MIC) (C. albicans) Compounds of the present disclosure were assessed for their ability to inhibit the growth of common strains of fungus, C. albicans using a standardized procedure (CLSI M27-A2). Stock solutions of the test compounds and standards were prepared in DMSO at 1,600 μg/mL (C. albicans). Eleven, serial, one-half dilutions of compounds were prepared in 96-well plates in RPMI+MOPS. The assay concentration ranges were 8-0.001 μg/mL (C. albicans). Cell suspensions of C. albicans were prepared and added to each well at concentrations of approximately 3.7×10^3 colony-forming-units per milliliter (cfu/mL). All testing was in duplicate. The inoculated plates were incubated for approximately 48 h at 35±1° C. At the completion of incubation the wells of each plate were evaluated visually for the presence of fungal growth. […] For QC purposes C. krusei isolate ATCC 6258 (4.0×10^3 cfu/mL) was included in the VOR assay.

CYP2C9 = CYP2C9 (Homo sapiens (Human), UniProt P11712); test: biochemical
Sequence of CYP2C9 (P11712 whole entry): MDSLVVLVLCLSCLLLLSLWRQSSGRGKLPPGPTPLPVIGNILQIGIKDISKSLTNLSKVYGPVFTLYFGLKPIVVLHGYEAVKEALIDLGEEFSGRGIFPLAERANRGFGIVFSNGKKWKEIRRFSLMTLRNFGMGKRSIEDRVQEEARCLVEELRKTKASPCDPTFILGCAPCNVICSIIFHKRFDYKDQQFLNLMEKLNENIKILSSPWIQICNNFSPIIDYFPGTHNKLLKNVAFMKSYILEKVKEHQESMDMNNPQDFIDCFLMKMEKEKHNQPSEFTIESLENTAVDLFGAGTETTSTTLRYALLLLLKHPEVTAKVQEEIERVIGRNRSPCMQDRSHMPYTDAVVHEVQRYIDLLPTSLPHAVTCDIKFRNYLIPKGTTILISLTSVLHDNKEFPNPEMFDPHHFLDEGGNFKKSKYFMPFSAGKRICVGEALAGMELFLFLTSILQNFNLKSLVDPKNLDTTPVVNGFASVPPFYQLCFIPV
Experimental: (§1) B Inhibition of Liver Cytochrome P450 Enzymes
(§2) Solutions of each test compound were separately prepared at concentrations of 20000, 6000, 2000, 600, 200, and 60 μM by serial dilution with DMSO:MeCN (50:50 v/v). The individual test compound solutions were then diluted 20-fold with DMSO:MeCN:deionized water (5:5:180 v/v/v) to concentrations of 1000, 300, 100, 30, 10, and 3 μM. Mixtures of isozyme inhibitors (sulfaphenazole, tranylcypromine, and ketoconazole as specific inhibitors of isozymes 2C9, 2C19, and 3A4, respectively) were prepared containing each inhibitor at concentrations of 6000, 2000, 600, 200, 60, 20, 6, and 2 μM by serial dilution with DMSO:ACN (50:50 v/v). […]
(§3) Pooled human liver microsome suspension (20 mg/mL) was diluted with phosphate buffer to obtain a 5 mg/mL suspension. […] Separate stock solutions of each substrate were prepared in DMSO:MeCN (50:50 v/v), mixed, and diluted in phosphate buffer to obtain a single solution containing each substrate at five times its experimentally determined Km concentration. […]
(§4) Substrate solution and microsome suspension were combined in a 1:1 volume ratio, mixed, and distributed to reaction wells of a PCR plate. […] A portion of the supernatant was analyzed by gradient reverse-phase HPLC with detection by electrospray ionization triple quadrupole mass spectrometry in the positive ion mode. […]

CYP2C19 = CYP2C19 (Homo sapiens (Human), UniProt P33261); test: biochemical
Sequence of CYP2C19 (P33261 whole entry): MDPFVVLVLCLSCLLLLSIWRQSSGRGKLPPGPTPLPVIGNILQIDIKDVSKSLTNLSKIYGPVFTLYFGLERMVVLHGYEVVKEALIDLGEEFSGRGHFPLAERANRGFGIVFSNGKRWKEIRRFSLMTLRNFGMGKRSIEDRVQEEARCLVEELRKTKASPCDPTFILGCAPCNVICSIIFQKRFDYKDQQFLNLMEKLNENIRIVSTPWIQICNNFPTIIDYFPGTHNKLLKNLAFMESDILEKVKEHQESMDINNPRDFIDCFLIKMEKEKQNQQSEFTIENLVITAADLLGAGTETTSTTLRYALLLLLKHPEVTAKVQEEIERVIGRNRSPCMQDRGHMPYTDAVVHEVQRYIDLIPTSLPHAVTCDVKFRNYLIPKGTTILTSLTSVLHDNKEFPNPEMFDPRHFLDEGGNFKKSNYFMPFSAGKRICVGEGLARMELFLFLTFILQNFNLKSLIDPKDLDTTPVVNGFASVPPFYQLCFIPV
Experimental: as §1, §2, §3, §4

CYP3A4 = CYP3A4 (Homo sapiens (Human), UniProt P08684); test: biochemical
Sequence of CYP3A4 (P08684 whole entry): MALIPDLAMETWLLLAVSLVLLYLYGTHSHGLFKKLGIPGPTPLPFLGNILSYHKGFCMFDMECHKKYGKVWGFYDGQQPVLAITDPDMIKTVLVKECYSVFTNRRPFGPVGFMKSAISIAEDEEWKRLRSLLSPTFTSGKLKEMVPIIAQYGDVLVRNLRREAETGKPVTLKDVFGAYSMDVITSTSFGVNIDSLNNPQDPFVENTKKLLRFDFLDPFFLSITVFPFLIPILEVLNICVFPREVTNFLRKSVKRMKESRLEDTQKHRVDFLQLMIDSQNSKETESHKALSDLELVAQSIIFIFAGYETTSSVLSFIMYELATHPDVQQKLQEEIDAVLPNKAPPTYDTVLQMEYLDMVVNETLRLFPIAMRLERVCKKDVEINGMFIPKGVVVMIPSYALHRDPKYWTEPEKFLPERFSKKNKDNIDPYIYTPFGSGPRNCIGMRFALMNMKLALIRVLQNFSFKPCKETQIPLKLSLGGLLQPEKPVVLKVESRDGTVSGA
Experimental: as §1, §2, §3, §4

[1] = tested on: Septoria tritici (ATCC 26517); test: Minimum Inhibitory Concentration (MIC) (Septoria tritici), CLSI-based microdilution; format: cell-based; conditions: Zymoseptoria tritici, ATCC26517, 168 h; S. tritici ATCC 26517; 50% growth reduction; 7 days at 22 °C; read-out: Septoria Rating (MIC)
Experimental: C. Minimum Inhibitory Concentration (MIC) (Septoria tritici) Compounds of the present disclosure were assessed for their ability to inhibit the growth of a common strain of the fungal plant pathogen Septoria tritici (ATCC 26517) using a procedure based on a Clinical and Laboratory Standards Institute (CLSI) microdilution assay protocol for filamentous fungi. Stock solutions of the test compounds and standards were prepared in DMSO at 6400 μg/mL. Each stock solution was used to prepare a 2-fold dilution series ranging from 16 to 0.016 μg/mL (total of 11 compound concentrations) in RPMI-1640 (Roswell Park Memorial Institute) medium containing 3-(N-morpholino)propanesulfonic acid (MOPS) buffer and 2% DMSO. A 100 μL aliquot of the dilutions was added to columns 1 (16 μg/mL compound) through 11 (0.016 μg/mL compound) of a 96-well microtiter plate. This format was replicated in a second row of the microtiter plate. Thus, each microtiter plate could include 11 concentrations of four test or control compounds replicated twice. A 100 μL aliquot of RPMI-1640/MOPS/2% DMSO medium was added to column 12 (no compound control) of the microtiter plate. A fresh culture of S. tritici was used to prepare a solution of approximately 5×10^4 colony-forming units per milliliter (cfu/mL) in RPMI/MOPS medium without DMSO. A 100 μL aliquot of this solution was added to all 96 wells in the microtiter plate. […] The assay plates were incubated at 22° C. for seven days in the dark without shaking. […] In each case of Table 3 the rating scale is as follows: […]

[2] = tested on: Puccinia recondita tritici; test: Fungicidal activity vs. leaf rust on wheat plants (PUCCRT); format: in vivo, Puccinia recondita tritici=Puccinia triticina; conditions: 50 ppm spray on wheat (variety Yuma); inoculated the following day; severity evaluated 7-9 days later
From the text: D. Evaluation of Fungicidal Activity Vs. Leaf Rust (Causal Agent Puccinia recondita tritici=Puccinia triticina; Bayer Code PUCCRT).
Each pot contained 3-8 seedlings. These plants were sprayed until wet with the formulated test compounds. The compounds were formulated at 50 ppm in 10 vol. % acetone plus 90 vol. % Triton X water (deionized water 99.99 wt %+0.01 wt % Triton X100), giving a “formulated test compound.” Formulated test compounds were applied to plants using a turn table sprayer fitted with two opposing air atomization nozzles which delivered approximately 1500 L/ha of spray volume. On the following day, the leaves were inoculated with an aqueous spore suspension of Puccinia recondita tritici and the plants were kept in high humidity overnight to permit spores to germinate and infect the leaf. The plants were then transferred to a greenhouse until disease developed on untreated control plants. Disease severity was evaluated 7-9 days later, depending on the speed of disease development. Compounds 4(−), 9(+), 11, 13, 18, 21, 25, 26, 27, 28, 32, 34, 37, 38, 39, 42, 43, 48, 51, 52, 56, 57, and 59 were selected for testing against PUCCRT at 50 ppm. Compounds that provided >80% disease control at 50 ppm included 4(−), 9(+), 11, 13, 18, 21, 25, 26, 27, 28, 32, 34, 37, 38, 39, 42, 43, 48, 52, 56, and 57.

OC(Cn1cnnn1)(c1ccc(F)cc1F)C(F)(F)c1ccc2cc(Br)ccc2n1 (centres unmarked) [Compound 9, 1-(6-Bromoquinolin-2-yl)-2-(2,4-difluorophenyl)-1,1-difluoro-3-(1H-tetrazol-1-yl)propan-2-ol]
MIC (C. albicans): 0.016 µg/mL (≈ 0.0332 µM)
IC50 (CYP2C9): 13 µM
IC50 (CYP2C19): 12 µM
IC50 (CYP3A4): 11 µM

OC(Cn1cnnn1)(c1ccc(F)cc1F)C(F)(F)c1cnc2cc(Cl)ccc2n1 (centres unmarked) [Compound 10, 1-(6-Chloroquinoxalin-2-yl)-2-(2,4-difluorophenyl)-1,1-difluoro-3-(1H-tetrazol-1-yl)propan-2-ol]
MIC (C. albicans): 0.125 µg/mL (≈ 0.285 µM)
IC50 (CYP2C9): 42 µM
IC50 (CYP2C19): 29 µM
IC50 (CYP3A4): 45 µM

OC(Cn1cnnn1)(c1ccc(F)cc1F)C(F)(F)c1cnc(-c2ccc(Br)cc2)cn1 (centres unmarked) [Compound 43, 1-(5-(4-Bromophenyl)pyrazin-2-yl)-2-(2,4-difluorophenyl)-1,1-difluoro-3-(1H-tetrazol-1-yl)propan-2-ol]
MIC [1]: ≤ 0.5 µg/mL
disease control [2]: > 80%

COc1ccc(-c2cnc(C(F)(F)C(O)(Cn3cnnn3)c3ccc(F)cc3F)cn2)cc1 (centres unmarked) [Compound 48, 2-(2,4-Difluorophenyl)-1,1-difluoro-1-(5-(4-methoxyphenyl)pyrazin-2-yl)-3-(1H-tetrazol-1-yl)propan-2-ol]
MIC [1]: ≤ 0.5 µg/mL
disease control [2]: > 80%

OC(Cn1cnnn1)(c1ccc(F)cc1F)C(F)(F)c1cnc(CCc2ccc(F)cc2)cn1 (centres unmarked) [Compound 52, 2-(2,4-Difluorophenyl)-1,1-difluoro-1-(5-(4-fluorophenethyl)pyrazin-2-yl)-3-(1H-tetrazol-1-yl)propan-2-ol]
MIC [1]: ≤ 0.5 µg/mL
disease control [2]: > 80%

OC(Cn1cnnn1)(c1ccc(F)cc1F)C(F)(F)c1ccc(-c2ccc(C(F)(F)F)cc2)nn1 (centres unmarked) [Compound 56, 2-(2,4-Difluorophenyl)-1,1-difluoro-3-(1H-tetrazol-1-yl)-1-(6-(4-(trifluoromethyl)phenyl)pyridazin-3-yl)propan-2-ol]
MIC [1]: 0.5 to 1.5 µg/mL (≈ 1 to 3.01 µM)
disease control [2]: > 80%

OC(Cn1cnnn1)(c1ccc(F)cc1F)C(F)(F)c1ccc(-c2ccc(OC(F)(F)F)cc2)nn1 (centres unmarked) [Compound 57, 2-(2,4-Difluorophenyl)-1,1-difluoro-3-(1H-tetrazol-1-yl)-1-(6-(4-(trifluoromethoxy)phenyl)pyridazin-3-yl)propan-2-ol]
MIC [1]: ≤ 0.5 µg/mL
disease control [2]: > 80%

OC(Cn1cncn1)(Cn1cncn1)c1ccc(F)cc1F [Fluconazole, reference compound]
MIC (C. albicans): 0.5 µg/mL (≈ 1.63 µM)

C[C@@H](c1ncncc1F)[C@](O)(Cn1cncn1)c1ccc(F)cc1F [Voriconazole, reference compound]
MIC (C. albicans): 0.016 µg/mL (≈ 0.0458 µM)
